Results reported in ChEMBL document CHEMBL4229421 (Bioorg Med Chem Lett, 2018).

Experiments:
MDA-MB-231 = experiment: Antiproliferative activity against human MDA-MB-231 cells; assay type: functional, cell-based
HCT-116 = experiment: Antiproliferative activity against human HCT116 cells; assay type: functional, cell-based
[1] = target: Tyrosine-protein kinase JAK2 (Homo sapiens, UniProt O60674); experiment: Inhibition of human JAK2 using poly[Glu:Tyr] (4:1) as substrate in presence of [gamma-33P]ATP
Tyrosine-protein kinase JAK2, sequence (O60674 whole entry, the tested form may be a part): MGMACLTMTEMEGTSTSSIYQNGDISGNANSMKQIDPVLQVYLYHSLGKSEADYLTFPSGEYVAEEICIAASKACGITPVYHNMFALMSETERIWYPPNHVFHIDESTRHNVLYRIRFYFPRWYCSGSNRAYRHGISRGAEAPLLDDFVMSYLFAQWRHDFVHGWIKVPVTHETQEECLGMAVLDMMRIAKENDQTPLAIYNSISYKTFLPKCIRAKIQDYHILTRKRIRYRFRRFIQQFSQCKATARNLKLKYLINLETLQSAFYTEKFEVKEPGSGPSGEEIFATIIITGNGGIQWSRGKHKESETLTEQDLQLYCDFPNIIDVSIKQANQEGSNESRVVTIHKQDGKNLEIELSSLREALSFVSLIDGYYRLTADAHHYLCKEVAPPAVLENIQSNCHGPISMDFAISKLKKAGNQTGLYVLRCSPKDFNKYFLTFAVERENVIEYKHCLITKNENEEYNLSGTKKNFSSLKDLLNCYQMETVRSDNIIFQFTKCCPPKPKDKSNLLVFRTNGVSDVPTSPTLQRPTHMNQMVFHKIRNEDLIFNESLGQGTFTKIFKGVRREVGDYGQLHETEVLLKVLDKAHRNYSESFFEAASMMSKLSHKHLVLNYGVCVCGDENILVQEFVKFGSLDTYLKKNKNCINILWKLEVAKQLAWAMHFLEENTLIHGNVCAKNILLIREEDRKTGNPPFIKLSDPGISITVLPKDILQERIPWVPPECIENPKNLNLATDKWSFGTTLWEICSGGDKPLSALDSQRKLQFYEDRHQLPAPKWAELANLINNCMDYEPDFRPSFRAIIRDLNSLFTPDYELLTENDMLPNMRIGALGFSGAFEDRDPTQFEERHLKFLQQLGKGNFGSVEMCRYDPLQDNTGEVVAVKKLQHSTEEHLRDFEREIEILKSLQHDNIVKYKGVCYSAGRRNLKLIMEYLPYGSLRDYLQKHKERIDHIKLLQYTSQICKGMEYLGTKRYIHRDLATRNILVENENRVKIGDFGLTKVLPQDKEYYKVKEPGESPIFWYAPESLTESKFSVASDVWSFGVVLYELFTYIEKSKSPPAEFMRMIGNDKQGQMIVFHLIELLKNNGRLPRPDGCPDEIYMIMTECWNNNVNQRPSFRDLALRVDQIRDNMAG

[2] = target: T1, Protein deacetylase HDAC6 (Homo sapiens, UniProt Q9UBN7); experiment: Inhibition of human HDAC6 using p53 (379 to 382 residues) derived fluorogenic peptide RHKKAc as substrate
T1 sequence (Q9UBN7 whole entry): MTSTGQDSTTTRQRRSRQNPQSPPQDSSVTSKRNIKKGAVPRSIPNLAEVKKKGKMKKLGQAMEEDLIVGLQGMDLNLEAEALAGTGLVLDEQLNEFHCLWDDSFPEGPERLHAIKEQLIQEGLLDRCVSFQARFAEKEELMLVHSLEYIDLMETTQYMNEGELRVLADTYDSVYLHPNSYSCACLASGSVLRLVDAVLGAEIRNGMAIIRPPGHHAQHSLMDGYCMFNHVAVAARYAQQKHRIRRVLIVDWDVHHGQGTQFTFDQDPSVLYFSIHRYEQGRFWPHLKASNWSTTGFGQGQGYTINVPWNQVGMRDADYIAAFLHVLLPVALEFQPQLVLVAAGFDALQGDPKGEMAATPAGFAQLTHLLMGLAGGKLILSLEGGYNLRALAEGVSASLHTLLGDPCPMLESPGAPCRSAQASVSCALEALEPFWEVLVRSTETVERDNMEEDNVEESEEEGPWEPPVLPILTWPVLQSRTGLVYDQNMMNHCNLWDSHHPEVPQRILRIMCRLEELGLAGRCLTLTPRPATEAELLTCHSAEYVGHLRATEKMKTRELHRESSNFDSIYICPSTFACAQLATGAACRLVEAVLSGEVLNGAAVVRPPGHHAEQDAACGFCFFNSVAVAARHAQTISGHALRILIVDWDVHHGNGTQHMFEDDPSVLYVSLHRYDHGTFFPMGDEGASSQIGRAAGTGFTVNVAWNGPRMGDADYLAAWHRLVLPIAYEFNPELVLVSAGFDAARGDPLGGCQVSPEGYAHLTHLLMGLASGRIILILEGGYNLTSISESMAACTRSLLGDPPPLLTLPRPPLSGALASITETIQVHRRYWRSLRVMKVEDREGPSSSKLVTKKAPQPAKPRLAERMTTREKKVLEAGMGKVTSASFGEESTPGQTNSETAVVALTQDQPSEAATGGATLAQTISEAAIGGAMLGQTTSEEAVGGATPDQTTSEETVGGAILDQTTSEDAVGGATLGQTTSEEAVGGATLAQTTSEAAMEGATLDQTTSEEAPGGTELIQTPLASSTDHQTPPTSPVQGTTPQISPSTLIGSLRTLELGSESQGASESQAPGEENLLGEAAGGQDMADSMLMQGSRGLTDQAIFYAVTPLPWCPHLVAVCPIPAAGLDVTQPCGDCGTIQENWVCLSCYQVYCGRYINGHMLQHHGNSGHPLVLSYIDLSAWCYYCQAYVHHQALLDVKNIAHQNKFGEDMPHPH

Histone deacetylase 1 = Histone deacetylase 1 (Homo sapiens, UniProt Q13547); experiment: Inhibition of human HDAC1 using p53 (379 to 382 residues) derived fluorogenic peptide RHKKAc as substrate
Histone deacetylase 1, sequence (Q13547 whole entry, the tested form may be a part): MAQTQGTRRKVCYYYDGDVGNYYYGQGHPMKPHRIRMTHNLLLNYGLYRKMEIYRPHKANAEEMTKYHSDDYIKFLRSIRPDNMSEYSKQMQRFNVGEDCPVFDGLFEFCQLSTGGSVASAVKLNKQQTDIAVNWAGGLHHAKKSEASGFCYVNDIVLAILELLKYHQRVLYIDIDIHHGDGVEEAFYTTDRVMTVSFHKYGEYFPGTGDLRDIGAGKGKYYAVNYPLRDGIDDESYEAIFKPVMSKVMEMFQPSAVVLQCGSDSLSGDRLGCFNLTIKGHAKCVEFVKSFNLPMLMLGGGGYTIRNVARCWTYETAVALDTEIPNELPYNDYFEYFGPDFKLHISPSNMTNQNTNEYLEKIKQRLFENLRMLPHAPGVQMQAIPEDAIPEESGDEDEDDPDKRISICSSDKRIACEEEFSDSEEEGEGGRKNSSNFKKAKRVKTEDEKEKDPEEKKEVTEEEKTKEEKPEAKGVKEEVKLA

MCF7 = experiment: Antiproliferative activity against human MCF7 cells; assay type: functional, cell-based
Homo sapiens = species on record: Homo sapiens; experiment: Selectivity ratio of IC50 for human HDAC6 to IC50 for human HDAC1
PC-3 = experiment: Antiproliferative activity against human PC3 cells; assay type: functional, cell-based

Row | SMILES | IC50 (MDA-MB-231) [nM] | IC50 (HCT-116) [nM] | IC50 [1] [nM] | IC50 [2] [nM] | IC50 (Histone deacetylase 1) [nM] | IC50 (MCF7) [nM] | Ratio IC50 (Homo sapiens) | IC50 (PC-3) [nM]
1 | C=CCCn1cc(-c2nc(Nc3ccc(NC(=O)CCCCCCC(=O)NO)cc3)nc3[nH]ccc23)cn1 | 7400 | 4100 | 0.041 | 0.25 | 83 | 4500 | > 300 | 7700
2 | O=C(CCCCCCOc1ccc2cc1COC/C=C/COCc1cccc(c1)-c1ccnc(n1)N2)NO | > 10000 | > 10000 |  |  |  | > 10000 |  | > 10000
3 | N#CCCn1cc(-c2nc(Nc3ccc(NC(=O)CCCCCCC(=O)NO)cc3)nc3[nH]ccc23)cn1 |  |  |  | 0.85 | 45 |  |  | 
4 | O=C(CCCCCCC(=O)Nc1ccc(Nc2nc(-c3cnn(CCCCOc4ccccc4)c3)c3cc[nH]c3n2)cc1)NO |  |  | 40 | 7 | 1720 |  |  | 
5 | COCCn1cc(-c2nc(Nc3ccc(NC(=O)CCCCCCC(=O)NO)cc3)nc3[nH]ccc23)cn1 | 13300 | 9400 | 2.3 | 2.1 | 63 | 12200 |  | 35000
6 | O=C(CCCCCCC(=O)Nc1ccc(Nc2nc(-c3cnn(CCCCCCOc4ccccc4)c3)c3cc[nH]c3n2)cc1)NO |  |  | 19 | 15.8 | 2000 |  |  | 
7 | O=C(CCCCCCC(=O)Nc1ccc(Nc2nc(-c3cn[nH]c3)c3cc[nH]c3n2)cc1)NO | 11800 | 14400 | 0.96 | 0.2 | 2 | 15600 |  | 20100
8 | O=C(CCCCCCC(=O)Nc1ccc(Nc2nc(-c3cnn(CCCCCOc4ccccc4)c3)c3cc[nH]c3n2)cc1)NO |  |  | 21 | 5.2 | 1320 |  |  | 
9 | CS(=O)(=O)CCn1cc(-c2nc(Nc3ccc(NC(=O)CCCCCCC(=O)NO)cc3)nc3[nH]ccc23)cn1 | > 100000 | > 100000 | 7.7 | 2.3 | 101 | > 100000 |  | > 100000
10 | N#CC[C@H](C1CCCC1)n1cc(-c2ncnc3[nH]ccc23)cn1 [RUXOLITINIB] |  | > 10000 |  |  |  |  |  | 
11 | O=C(CCCCCCC(=O)Nc1ccc(Nc2nc(-c3cnn(CC4CCCC4)c3)c3cc[nH]c3n2)cc1)NO |  |  | 3 | 9.6 | 2710 |  | 300 | 
12 | CCCn1cc(-c2nc(Nc3ccc(NC(=O)CCCCCCC(=O)NO)cc3)nc3[nH]ccc23)cn1 | 9100 | 6500 | 0.15 | 1.6 | 44 | 8200 |  | 13400
